For experiment [1], the target named is T1, Carbonic anhydrase 9 (Homo sapiens, UniProt Q16790).
The subject of a further experiment is Ca9-22. Nature of the experiment: cells. The class given is functional. The note with it: Homo sapiens, time 48 hrs.
For another experiment, the target named is Carbonic anhydrase 1 (Homo sapiens, UniProt P00915).
In the next experiment the target is Carbonic anhydrase 12 (Homo sapiens, UniProt O43570).
Experiment [2] has as its target T1, Carbonic anhydrase 9. The source holds these as a separate data set.

Carbonic anhydrase 12, sequence (O43570 whole entry): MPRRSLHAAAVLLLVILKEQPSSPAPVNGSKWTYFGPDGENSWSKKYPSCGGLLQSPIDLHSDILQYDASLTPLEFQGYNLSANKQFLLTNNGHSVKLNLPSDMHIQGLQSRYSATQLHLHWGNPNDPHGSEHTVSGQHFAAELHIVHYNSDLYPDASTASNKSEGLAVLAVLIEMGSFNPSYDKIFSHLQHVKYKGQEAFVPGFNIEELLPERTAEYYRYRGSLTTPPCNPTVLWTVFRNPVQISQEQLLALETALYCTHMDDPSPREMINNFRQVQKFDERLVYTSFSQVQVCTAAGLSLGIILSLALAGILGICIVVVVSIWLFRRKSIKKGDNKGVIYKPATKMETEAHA
Carbonic anhydrase 1, sequence (P00915 whole entry): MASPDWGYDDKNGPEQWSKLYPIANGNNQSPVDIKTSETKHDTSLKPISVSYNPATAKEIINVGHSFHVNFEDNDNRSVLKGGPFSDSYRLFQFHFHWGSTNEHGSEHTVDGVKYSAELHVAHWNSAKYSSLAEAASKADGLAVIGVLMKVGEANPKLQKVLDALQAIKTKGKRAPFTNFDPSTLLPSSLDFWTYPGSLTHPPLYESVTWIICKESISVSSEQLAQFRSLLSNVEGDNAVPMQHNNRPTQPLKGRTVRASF
Description for Ca9-22: Cytotoxicity against human Ca9-22 cells assessed as cell growth inhibition measured after 48 hrs by MTT assay

As a reminder, the Ki is the equilibrium dissociation constant of an inhibitor or competing ligand from its target. By CC50 is commonly meant the concentration that lowers cell viability or growth by half. For the compound `COc1cc(OC)c(C2CC(c3ccc(C(F)(F)F)cc3)=NN2c2ccc(S(N)(=O)=O)cc2)cc1OC` (stereo not drawn), the Ki on Carbonic anhydrase 9 [1] is > 44 nM; at Carbonic anhydrase 1, > 230 nM; on Carbonic anhydrase 12, > 9 nM. In addition, in the experiment with Ca9-22, the CC50 turned out to be 6300 nM. As to `COc1ccc(C2CC(c3ccccc3)=NN2c2ccc(S(N)(=O)=O)cc2)c(OC)c1OC` (stereo not drawn), the Ki is > 44 nM at Carbonic anhydrase 9 [1], > 230 nM on Carbonic anhydrase 1 and > 9 nM at Carbonic anhydrase 12. The CC50 in the experiment with Ca9-22 came to 6300 nM. For the compound `COc1ccc(C2CC(c3ccc(F)cc3)=NN2c2ccc(S(N)(=O)=O)cc2)c(OC)c1OC` (stereo not drawn), the Ki is > 44 nM at Carbonic anhydrase 9 [1], > 230 nM at Carbonic anhydrase 1 and > 9 nM at Carbonic anhydrase 12. The same compound returned a CC50 in the experiment with Ca9-22 of 6300 nM. `COc1ccc(C2CC(c3ccc(C(F)(F)F)cc3)=NN2c2ccc(S(N)(=O)=O)cc2)c(OC)c1OC` (stereo not drawn): the Ki at Carbonic anhydrase 9 [1] was > 44 nM; on Carbonic anhydrase 1, > 230 nM; on Carbonic anhydrase 12 it was > 9 nM. It took 6300 nM to reach half-maximal cytotoxicity in the experiment with Ca9-22 (CC50). Turning to `C/C(=N\NC(=O)c1ccc(S(N)(=O)=O)cc1)c1ccc(N2C(=O)c3ccc(C(=O)O)cc3C2=O)cc1`, the Ki on Carbonic anhydrase 9 [1] was found to be 17.3 nM. In turn, `C/C(=N\NC(=O)c1ccc(S(N)(=O)=O)cc1)c1ccc(N2C(=O)C3C(C2=O)C2(Cl)C(Cl)=C(Cl)C3(Cl)C2(Cl)Cl)cc1` (stereo not drawn) gave a Ki on Carbonic anhydrase 9 [1] of 17.3 nM. The same measure, in the same setting: with `C/C(=N\O)c1ccc(N2C(=O)C3CC=CCC3C2=O)cc1` (stereo not drawn) the figure was 169 nM; with `C/C(=N\NC(=O)c1ccc(S(N)(=O)=O)cc1)c1ccc(N2C(=O)c3ccc(C)cc3C2=O)cc1`, 17.3 nM. With `CCN1C(=O)/C(=N\c2ccc(S(N)(=O)=O)cc2)c2ccccc21`, the Ki on Carbonic anhydrase 9 [1] is 13.9 nM; on Carbonic anhydrase 12, 34.3 nM. As for `COc1cc(OC)c(C2CC(c3cccs3)=NN2c2ccc(S(N)(=O)=O)cc2)cc1OC` (stereo not drawn), the Ki at Carbonic anhydrase 9 [1] is > 44 nM; on Carbonic anhydrase 1 it was > 230 nM; at Carbonic anhydrase 12, > 9 nM. Moreover, in the experiment with Ca9-22, half-maximal cytotoxicity (CC50) was put at 6300 nM. In the case of `C=CCN1C(=O)/C(=N\NC(=O)CNc2ccc(S(N)(=O)=O)cc2)c2ccccc21`, the figures for the Ki on Carbonic anhydrase 9 [1] and on Carbonic anhydrase 12 were 13.9 nM and 34.3 nM, respectively. Compound `CCN1C(=O)/C(=N\Nc2ccc(S(N)(=O)=O)cc2)c2ccccc21` came in with a Ki at Carbonic anhydrase 9 [1] of 23.6 nM.

As for `CN1C(=O)/C(=N\NC(=O)CNc2ccc(S(N)(=O)=O)cc2)c2ccccc21`, the Ki on Carbonic anhydrase 9 [1] is 13.9 nM; on Carbonic anhydrase 12, 34.3 nM. As for `COc1cc(OC)c(C2CC(c3ccc(Br)cc3)=NN2c2ccc(S(N)(=O)=O)cc2)cc1OC` (stereo not drawn), the figures for the Ki at Carbonic anhydrase 9 [1], at Carbonic anhydrase 1 and on Carbonic anhydrase 12 were > 44 nM, > 230 nM and > 9 nM, respectively. This compound gave a CC50 in the experiment with Ca9-22 of 6300 nM. As to `C/C(=N\NC(=O)c1ccc(S(N)(=O)=O)cc1)c1ccc(N2C(=O)c3c(Br)c(Br)c(Br)c(Br)c3C2=O)cc1`, the Ki at Carbonic anhydrase 9 [1] came out at 17.3 nM. As for `COc1cc(C2CC(c3ccc(Br)cc3)=NN2c2ccc(S(N)(=O)=O)cc2)cc(OC)c1OC` (stereo not drawn), the Ki on Carbonic anhydrase 9 [1] was > 44 nM; at Carbonic anhydrase 1, > 230 nM; at Carbonic anhydrase 12, > 9 nM. Moreover, in the experiment on Ca9-22, the CC50 is 6300 nM.

`CC(C)(C)OC(=O)C[C@H](Cc1ccccc1)C(=O)CCC(=O)NCc1ccc(S(N)(=O)=O)cc1` showed a Ki on Carbonic anhydrase 9 [1] of 1.8 nM. For `C=CCN1C(=O)/C(=N\c2ccc(S(N)(=O)=O)cc2)c2ccccc21`, the Ki is 13.9 nM at Carbonic anhydrase 9 [1] and 34.3 nM at Carbonic anhydrase 12. The compound `Cc1ccc(C(=O)/C=C/Nc2ccc(S(N)(=O)=O)cc2)cc1` displayed a Ki at Carbonic anhydrase 9 [2] of 0.21 nM. `C/C(=N\O)c1ccc(N2C(=O)c3c(Br)c(Br)c(Br)c(Br)c3C2=O)cc1`: affinity at Carbonic anhydrase 9 [1] was put at a Ki of 169 nM. Take `CCN1C(=O)/C(=N\NC(=O)CNc2ccc(S(N)(=O)=O)cc2)c2ccccc21`: the Ki on Carbonic anhydrase 12 was found to be 34.3 nM. Consider `COc1ccc(C2CC(c3cccs3)=NN2c2ccc(S(N)(=O)=O)cc2)c(OC)c1OC` (stereo not drawn), for which the Ki was > 44 nM at Carbonic anhydrase 9 [1], > 230 nM on Carbonic anhydrase 1 and > 9 nM at Carbonic anhydrase 12. The midpoint of cytotoxicity with Ca9-22, the CC50, lay at 6300 nM.

Consider `CN1C(=O)/C(=N\c2ccc(S(N)(=O)=O)cc2)c2ccccc21`, for which the Ki on Carbonic anhydrase 9 [1] was 13.9 nM; at Carbonic anhydrase 12, 34.3 nM. The compound `NS(=O)(=O)c1ccc(NCC(=O)N/N=C2\C(=O)N(C(=O)c3ccccc3)c3ccccc32)cc1` displayed a Ki at Carbonic anhydrase 9 [1] of 65.3 nM. `NS(=O)(=O)c1ccc(N/C=C/C(=O)c2ccccc2)cc1` yielded a Ki on Carbonic anhydrase 9 [2] of 0.21 nM. Regarding `COc1cc(C2CC(c3ccccc3)=NN2c2ccc(S(N)(=O)=O)cc2)cc(OC)c1OC` (stereo not drawn), the Ki is > 44 nM at Carbonic anhydrase 9 [1], > 230 nM at Carbonic anhydrase 1 and > 9 nM on Carbonic anhydrase 12. The compound further returned a CC50 in the experiment with Ca9-22 of 6300 nM. Take `C/C(=N\NC(=O)c1ccc(S(N)(=O)=O)cc1)c1ccc(N2C(=O)c3ccc(C(C)(C)C)cc3C2=O)cc1`: the affinity at Carbonic anhydrase 9 [1] corresponds to a Ki of 83.8 nM. At Carbonic anhydrase 9 [1], `COc1ccc2nc(S/C(=N/Nc3ccc(S(N)(=O)=O)cc3)C(C)=O)n(-c3ccccc3)c(=O)c2c1` yielded a Ki of 1.6 nM.

With `CN1C(=O)/C(=N\Nc2ccc(S(N)(=O)=O)cc2)c2ccccc21`, the Ki at Carbonic anhydrase 9 [1] came out at 13.9 nM. Compound `C/C(=N\O)c1ccc(N2C(=O)c3ccccc3C2=O)cc1` displayed an inhibition constant (Ki) on Carbonic anhydrase 9 [1] of 169 nM. `C/C(=N\NC(=O)c1ccc(S(N)(=O)=O)cc1)c1ccc(N2C(=O)c3cc(Cl)c(Cl)cc3C2=O)cc1` had a Ki at Carbonic anhydrase 9 [1] of 169 nM. At Carbonic anhydrase 9 [1], `C/C(=N\O)c1ccc(N2C(=O)C3C(C2=O)C2(Cl)C(Cl)=C(Cl)C3(Cl)C2(Cl)Cl)cc1` (stereo not drawn) returned a Ki of 169 nM. At Carbonic anhydrase 9 [1], `C/C(=N\O)c1ccc(N2C(=O)c3ccc(C(=O)O)cc3C2=O)cc1` had a Ki of 169 nM. Take `C/C(=N\O)c1ccc(N2C(=O)c3ccc(C(C)(C)C)cc3C2=O)cc1`: the Ki at Carbonic anhydrase 9 [1] came out at 169 nM. `C/C(=N\O)c1ccc(N2C(=O)c3ccc(C)cc3C2=O)cc1` displayed a Ki on Carbonic anhydrase 9 [1] of 169 nM.

`NS(=O)(=O)c1ccc(CCn2c(SCc3ccc(F)cc3)nc3ccccc3c2=O)cc1` registered a Ki at Carbonic anhydrase 9 [2] of 19.3 nM. In turn, `NS(=O)(=O)c1ccc(NCC(=O)N/N=C2\C(=O)Nc3ccccc32)cc1` came in with a Ki on Carbonic anhydrase 12 of 34.3 nM. `C/C(=N\O)c1ccc(N2C(=O)c3c(Cl)c(Cl)c(Cl)c(Cl)c3C2=O)cc1` came in with a Ki at Carbonic anhydrase 9 [1] of 169 nM. In turn, `Cc1ccc(-c2cc(C(F)(F)F)nn2-c2ccc(S(N)(=O)=O)cc2)cc1` [CELECOXIB] had a Ki at Carbonic anhydrase 9 [1] of 14.8 nM. For `NS(=O)(=O)c1cccc(-c2nc(-c3cccnc3)no2)c1`, on Carbonic anhydrase 9 [1], the Ki is 1.2 nM.

With `NS(=O)(=O)c1ccc(/N=C2\C(=O)N(Cc3ccccc3)c3ccccc32)cc1`, the inhibitory constant (Ki) stood at 13.9 nM at Carbonic anhydrase 9 [1] and 34.3 nM on Carbonic anhydrase 12. `C=CCN1C(=O)/C(=N\Nc2ccc(S(N)(=O)=O)cc2)c2ccccc21`: on Carbonic anhydrase 12, affinity was put at a Ki of 34.3 nM.

With `COc1ccc(C(=O)N2C(=O)/C(=N\NC(=O)CNc3ccc(S(N)(=O)=O)cc3)c3ccccc32)cc1`, the affinity on Carbonic anhydrase 12, expressed as Ki, was 22.3 nM.

As to `NS(=O)(=O)c1ccc(N/N=C2\C(=O)N(Cc3ccccc3)c3ccccc32)cc1`, the Ki on Carbonic anhydrase 9 [1] was found to be 13.9 nM.

`C/C(=N\O)c1ccc(N2C(=O)c3cc(Cl)c(Cl)cc3C2=O)cc1`: at Carbonic anhydrase 9 [1], the Ki came out at 169 nM. Consider `C/C(=N\NC(=O)c1ccc(S(N)(=O)=O)cc1)c1ccc(N2C(=O)c3ccccc3C2=O)cc1`, for which, on Carbonic anhydrase 9 [1], affinity was put at a Ki of 17.3 nM. As for `CC(C)[C@@H](CC(=O)[C@@H](C)CC(=O)OCc1ccccc1)C(=O)NCc1ccc(S(N)(=O)=O)cc1`, the Ki on Carbonic anhydrase 12 is 7.4 nM.

In the case of `O=S1(=O)C=Cc2cc(-n3nncc3-c3ccc(F)cc3)ccc2O1`, the affinity on Carbonic anhydrase 9 [1] corresponds to a Ki of 6.9 nM. The same measure, in the same setting: with `C/C(=N\NC(=O)c1ccc(S(N)(=O)=O)cc1)c1ccc(N2C(=O)C3CC=CCC3C2=O)cc1` (stereo not drawn) the figure was 17.3 nM. `NS(=O)(=O)c1ccc(CCNC(=O)CSc2nc3ccc(I)cc3c(=O)n2Cc2ccccc2)cc1` had an inhibition constant Ki on Carbonic anhydrase 12 of 5.2 nM.

For the origin of these results see ChEMBL document CHEMBL5104090, “Recent advances in the medicinal chemistry of carbonic anhydrase inhibitors” (Eur J Med Chem, 2021).
